Data: PubChem BioAssay (NCI)
Where “and” joins values, the source holds several entries; their conditions need not be identical. Equal values may be shown once.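 These data come from cells grown in 96-well plates and exposed to compound for 48 hours at five concentrations. GI50 marks 50% less growth. TGI: total growth inhibition.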

How the values were obtained:
Assay in all cases: DTP human tumour cell line panel, 48 h
786-0 renal = tested on: 786-0 renal
SK-OV-3 ovarian = tested on: SK-OV-3 ovarian
KM12 colon = tested on: KM12 colon
NCI-H23 lung = tested on: NCI-H23 lung
SK-MEL-2 melanoma = tested on: SK-MEL-2 melanoma
SNB-19 CNS = tested on: SNB-19 CNS
NCI-H522 lung = tested on: NCI-H522 lung
SN12C renal = tested on: SN12C renal
HCT-116 colon = tested on: HCT-116 colon
SF-295 CNS = tested on: SF-295 CNS

Structure (SMILES) | GI50 (786-0 renal) [µM] | TGI (786-0 renal) | GI50 (SK-OV-3 ovarian) [µM] | TGI (SK-OV-3 ovarian) | GI50 (KM12 colon) [µM] | TGI (KM12 colon) | GI50 (NCI-H23 lung) [µM] | TGI (NCI-H23 lung) | GI50 (SK-MEL-2 melanoma) [µM] | TGI (SK-MEL-2 melanoma) | GI50 (SNB-19 CNS) [µM] | TGI (SNB-19 CNS) [µM] | GI50 (NCI-H522 lung) [µM] | TGI (NCI-H522 lung) [µM] | GI50 (SN12C renal) [µM] | TGI (SN12C renal) | GI50 (HCT-116 colon) [µM] | TGI (HCT-116 colon) [µM] | GI50 (SF-295 CNS) [µM] | TGI (SF-295 CNS) [µM]
C=C1C(=O)O[C@H]2[C@H]1CC/C(COC(=O)OC/C1=C/CC[C@@]3(C)O[C@H]3[C@H]3OC(=O)[C@@H](CN(C)C)[C@@H]3CC1)=C\CC[C@@]1(C)O[C@@H]21 | 1.31 | 2.79 µM | 12.8 | 25.4 µM | 5.49 | 18.7 µM | 2.86 | 10.2 µM | 2.27 | 5.88 µM | 4.67 | 18.3 | 0.214 | 0.513 | 2.79 | 10.2 µM | 1.13 | 2.35 | 12.1 | 24.9
CC(=O)NC(CSC1=C2NC(=O)\C=C/C=C/C=C\C(C)C(O)CC(=O)/C(C)=C\CC(O)/C=C/C(C)C(O)C(C)C=C(C)C(=O)c3c(O)c(C)cc(c3C1=O)C2=O)C(=O)O (stereo unspecified) | – | > 100 µM | – | > 100 µM | – | > 100 µM | – | > 100 µM | – | > 100 µM | – | > 100 | – | 71.8 | – | > 100 µM | – | > 100 | – | > 100
Cc1ccc(S(=O)(=O)c2ccc(C)cc2[N+](=O)[O-])cc1 | – | > 100 µM | – | > 100 µM | – | > 100 µM | – | > 100 µM | – | > 100 µM | – | > 100 | – | > 100 | – | > 100 µM | – | > 100 | – | > 100
C=C1SC(=Nc2ccccc2Cl)N(C(=O)c2sc3ccccc3c2Cl)C12CCCCC2 | 37.9 | > 100 µM | 13.9 | > 100 µM | 4.73 | > 100 µM | 4.43 | > 100 µM | 15.8 | 58.8 µM | 7.56 | > 100 | 4.23 | > 100 | 6.99 | > 100 µM | 7.61 | > 100 | 2.31 | 23
Cc1[nH]c(N)nc(=S)c1CCC(=O)O | – | > 100 µM | – | > 100 µM | – | > 100 µM | – | > 100 µM | – | > 100 µM | – | > 100 | – | > 100 | – | > 100 µM | – | > 100 | – | > 100
CCOC(=O)C12C(C(=O)OC)=C(C)N(NC(=O)Nc3ccccc3)C1(N)N(NC(=O)Nc1ccccc1)C(C)=C2C(=O)OC (stereo unspecified) | – | > 100 µM | – | > 100 µM | – | 47.8 µM | – | > 100 µM | – | 37.5 µM | – | > 100 | – | 55.3 | – | > 100 µM | – | 59.4 | – | 60
C[n+]1c2ccccc2nc2ccccc21 | 2.31 | 8.47 µM | 4.59 | 18.1 µM | 2.93 | 12.2 µM | 0.67 | 2.34 µM | 1.76 | 4.54 µM | 4.03 | 16.8 | 1.3 | 3.45 | 1.63 | 3.41 µM | 0.82 | 2.89 | 1.54 | 4.19
CCCCCCCCCCCCCCCCOP(=O)([O-])OCC[N+](C)(C)C | 2.33 | 7.76 µM and 25.4 µM | 1.2 | 9.4 µM and 57.1 µM | 0.341 | 1.78 µM and 10.3 µM | 3.17 | 13.3 µM and 65.3 µM | 2.36 | 7.05 µM and 46.9 µM | 1.21 | – | 0.885 | – | 2.74 | 10.7 µM and 56.6 µM | 1.49 | – | – | 53
Nc1nc2cc(CC[C@H]3C[C@@H](n4ccc5c(N)ncnc54)[C@H](O)[C@@H]3O)ccc2cc1Br | 12.7 | 28.9 µM | 13.4 | 39.2 µM | 11 | 25.9 µM | 2.07 | 23.9 µM | 10.9 | 25.1 µM | 7.09 | 23.5 | 9.26 | 28.8 | 8.59 | 22.4 µM | 2.45 | 19.9 | 3.25 | 19
CCCCCCCC(=O)SCC/C=C/[C@@H]1CC(=O)NCc2nc(cs2)C2=N[C@@](C)(CS2)C(=O)N[C@@H](C(C)C)C(=O)N1 | 0.139 | 19.7 µM | 0.0149 | 0.14 µM | 0.0389 | > 100 µM | 0.0399 | 20.8 µM | 0.0304 | 0.597 µM | 0.0419 | > 41.1 | 0.0278 | 11.1 | 0.034 | > 100 µM | < 0.01 | 0.035 | 0.0392 | 0.402
CCCCCCCC/C=C1\CCC(CN2CCOCC2)C1=O (stereo unspecified) | – | 3.07 µM | – | 34.3 µM | – | 12.4 µM | – | 24.4 µM | – | 28.8 µM | – | 24.6 | – | 6.79 | – | 12.5 µM | – | 13.6 | – | 28.2
CCCN(CCC)C(=O)c1nc(N)nc(-c2ccc(OC)cc2)c1-c1ccc(OC)cc1 | – | > 100 µM | – | > 100 µM | – | > 100 µM | – | > 100 µM | – | > 100 µM | – | > 100 | – | > 100 | – | > 100 µM | – | > 100 | – | > 100
